Data published in patent US5200426A, “Inhibitors of neutral endopeptidase/CALLA as chemotherapeutic agents” (Board of Regents, The University of Texas, priority 1990, dated 1993).
Entries after “also recorded” stand apart in the source; their conditions may differ. Square brackets hold non-standard residues; d marks the D form. Peptide text beside a SMILES is read from it. * marks the point of attachment. BrAc = O=C(CBr)*

Legend:
[1] = biological target: neutral endopeptidase 24.11 (NEP); experiment: Competitive inhibition of neutral endopeptidase (NEP); assay type: biochemical; details: read-out: Ki (competitive inhibitor)
Description: (§1) The efficacy of endopeptidase inhibitors may be assessed by determining cell numbers and the percent of viable cells (e.g., assessed by trypan blue exclusion) as a function of time in culture in the presence and absence of the endopeptidase inhibitors. In addition the level of neutral endopeptidase activity will be measured and correlated with these parameters. Since the enzyme is on the cell surface its activity can be measured by simply adding substrate to the cell culture. The kinetics of inactivation of purified enzyme can also be assessed. A graphical analysis of the inactivation constant (kobs) versus the inhibitor concentration can be plotted. If the inhibitor binds to the active site of the enzyme this graph should be hyperbolic. The data can then be analyzed in a double reciprocal plot of 1/kobs versus 1/[Inhibitor]. This should yield a straight line from which the dissociation constant for the inhibitor (Ki) and the maximal rate of inactivation k(inact) can be obtained. […] This type of analysis has previously been conducted to characterize the reaction of both phenylglyoxal and N-bromoacetyl-D-Leu-Gly with the enzyme.
NEP: glutaryl-Ala-Ala-Phe-MNA →glutaryl-Ala-Ala + Phe-MNA Aminopeptidase: Phe-MNA →Phe + MNA MNA =4-methoxy-2-naphthylamine

[2] = test system: neutral endopeptidase 24.11 (NEP); experiment: Affinity labelling / irreversible inactivation of NEP; assay type: biochemical
Description: as §1

[3] = test system: Nalm-6 cells (CALLA+ human leukemic cell line); experiment: Growth of Nalm-6 cells (viable cell counts daily); assay type: cell-based; details: for growth of Nalm-6 cells: bolus or daily addition, FIG. 4; for growth of Nalm-6 cells in conditioned media: 50-50 mixture of fresh media and media from a five-day culture, FIG. 5; for cell growth of Nalm-6: nanomolar to micromolar concentrations, FIG. 1 and 3
Description: FIG. 1--Effect of NEP Inhibitors on the Growth of Nalm-6, A2/3, and J558 Cell Lines. The two NEP inhibitors phosphoramidon (1 μM) and carboxyphenylethyl-Phe-β-Ala (20 μM) were added to cells plated in quadruplicate at a density of 100,000 cells/ml in 24 well microtiter plates. The number of viable cells was determined daily. FIG. 3--Correlation of Cell Growth with NEP Activity. Nalm-6 cells were treated with 10 nM phosphoramidon added either as a bolus (circles) or daily (triangles). Cells were initially plated at 200,000 cells/ml. Control cells without added inhibitor are shown as squares. Aliquots were taken daily for determining cell density. To the remainder of the sample was added glutaryl-[…] and NEP activity determined. […] Cells counts were conducted daily. FIG. 5--The Effect of NEP Inhibitors on Nalm-6 Cells Grown in Fresh or Conditioned Media. Nalm-6 cells were grown in fresh media or a 50--50 mixture of fresh media and media taken from a five-day culture. The pH of the conditioned media was adjusted to that of the fresh media. Cell counts were performed daily. The efficacy of endopeptidase inhibitors may be assessed by determining cell numbers and the percent of viable cells (e.g., assessed by trypan blue exclusion) as a function of time in culture in the presence and absence of the endopeptidase inhibitors. In addition the level of neutral endopeptidase activity will be measured and correlated with these parameters. Since the enzyme is on the cell surface its activity can be measured by simply adding substrate to the cell culture. The kinetics of inactivation of purified enzyme can also be assessed. A graphical analysis of the inactivation constant (kobs) versus the inhibitor concentration can be plotted. If the inhibitor binds to the active site of the enzyme this graph should be hyperbolic. The data can then be analyzed in a double reciprocal plot of 1/kobs versus 1/[Inhibitor]. This should yield a straight line from which the dissociation constant for the inhibitor (Ki) and the maximal rate of inactivation k(inact) can be obtained. […] This type of analysis has previously been conducted to characterize the reaction of both phenylglyoxal and N-bromoacetyl-D-Leu-Gly with the enzyme. […] Nalm-6 and Nall-1 are leukemic cell lines generally representative of CALLA+ lymphoblastic leukemias. […] The number of viable cells was determined daily. In FIG. 2, the NEP inhibitors phosphoramidon (PA;10 nM) and carboxyphenylethyl-Phe-β-Ala (10 μM) were added to Nall-1 and, in a separate experiment, to SMS-SB cells plated at a density of 200,000 cells/ml. The inhibitors were added either once on Day 0 as a bolus (closed circle and square) or daily (open circle or triangle). The number of viable cells was determined daily. The inhibition of cell growth by these NEP specific inhibitors appeared somewhat transient and correlated with the recovery of NEP activity. […] Control cells without added inhibitor are shown as squares. Cells were initially plated at a density of 200,000 cells/ml. Aliquots were taken daily for determining cell density. To the remainder of the sample was added glutaryl-[…] and NEP activity was determined.

[4] = test system: SMS-SB cells (CALLA- human leukemic cell line); experiment: Growth of SMS-SB cells (viable cell counts daily); assay type: cell-based; details: 10 μM, bolus or daily addition; FIG. 4
Description: FIG. 2--Effect of NEP Inhibitors on the Growth of Nall-1 and SMS-SB Cell Lines. The NEP inhibitors phosphoramidon (10 nM) and carboxyphenylethyl-Phe-β-Ala(10 μM) were added to cells plated at a density of 200,000 cells/ml. The inhibitors were added either once on Day 0 as a bolus (closed circle and square) or daily (open circle or triangle). The number of viable cells was determined daily. […] Cells counts were conducted daily. […] Nalm-6 and Nall-1 are leukemic cell lines generally representative of CALLA+ lymphoblastic leukemias. […] The number of viable cells was determined daily. In FIG. 2, the NEP inhibitors phosphoramidon (PA;10 nM) and carboxyphenylethyl-Phe-β-Ala (10 μM) were added to Nall-1 and, in a separate experiment, to SMS-SB cells plated at a density of 200,000 cells/ml. The inhibitors were added either once on Day 0 as a bolus (closed circle and square) or daily (open circle or triangle). The number of viable cells was determined daily.

[5] = biological target: T1, NEP (CALLA) on intact Nalm-6 cells (Homo sapiens, UniProt P08473); experiment: NEP activity of intact cells (glutaryl-Ala-Ala-Phe-MNA substrate); assay type: cell-based
T1 construct: NEP is a normal constituent of Nalm-6 cells; endogenous in cells; host or cells: Nalm-6 (human CALLA+ leukemic cell line)
T1 sequence (P08473 whole entry): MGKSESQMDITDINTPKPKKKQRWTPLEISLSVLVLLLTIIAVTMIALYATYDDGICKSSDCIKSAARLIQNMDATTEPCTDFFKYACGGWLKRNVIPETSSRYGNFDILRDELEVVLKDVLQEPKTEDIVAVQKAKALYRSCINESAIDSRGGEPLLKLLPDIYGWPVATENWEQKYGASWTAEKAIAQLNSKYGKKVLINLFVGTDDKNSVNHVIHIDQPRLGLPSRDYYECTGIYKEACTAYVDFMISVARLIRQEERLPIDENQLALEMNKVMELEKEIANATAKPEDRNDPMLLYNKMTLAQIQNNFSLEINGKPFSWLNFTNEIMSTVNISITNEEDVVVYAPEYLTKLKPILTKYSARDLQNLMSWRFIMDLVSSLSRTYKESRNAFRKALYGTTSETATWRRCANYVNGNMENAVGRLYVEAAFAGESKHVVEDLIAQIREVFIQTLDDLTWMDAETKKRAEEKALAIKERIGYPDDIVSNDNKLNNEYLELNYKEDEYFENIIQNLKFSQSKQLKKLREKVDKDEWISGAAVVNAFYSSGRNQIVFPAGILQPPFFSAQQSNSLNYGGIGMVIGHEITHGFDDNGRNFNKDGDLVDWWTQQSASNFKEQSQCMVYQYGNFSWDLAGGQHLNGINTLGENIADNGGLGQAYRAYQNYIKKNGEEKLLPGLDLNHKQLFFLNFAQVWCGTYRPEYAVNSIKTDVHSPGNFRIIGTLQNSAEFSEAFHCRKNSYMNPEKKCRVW
Description: FIG. 3--Correlation of Cell Growth with NEP Activity. Nalm-6 cells were treated with 10 nM phosphoramidon added either as a bolus (circles) or daily (triangles). Cells were initially plated at 200,000 cells/ml. Control cells without added inhibitor are shown as squares. Aliquots were taken daily for determining cell density. To the remainder of the sample was added glutaryl-[…] and NEP activity determined. The efficacy of endopeptidase inhibitors may be assessed by determining cell numbers and the percent of viable cells (e.g., assessed by trypan blue exclusion) as a function of time in culture in the presence and absence of the endopeptidase inhibitors. In addition the level of neutral endopeptidase activity will be measured and correlated with these parameters. Since the enzyme is on the cell surface its activity can be measured by simply adding substrate to the cell culture. The kinetics of inactivation of purified enzyme can also be assessed. A graphical analysis of the inactivation constant (kobs) versus the inhibitor concentration can be plotted. […] The data can then be analyzed in a double reciprocal plot of 1/kobs versus 1/[Inhibitor]. […] To the remainder of the sample was added glutaryl-[…] and NEP activity was determined. […] The NEP activity of intact cells in the presence of the inhibitors has been measured during the course of experiments similar to those shown in FIG. 1. […]

[6] = test system: Nall-1 cells (CALLA+ human leukemic cell line); experiment: Growth of Nall-1 cells (viable cell counts daily); assay type: cell-based; details: nanomolar to micromolar concentrations; FIG. 2
Description: FIG. 2--Effect of NEP Inhibitors on the Growth of Nall-1 and SMS-SB Cell Lines. The NEP inhibitors phosphoramidon (10 nM) and carboxyphenylethyl-Phe-β-Ala(10 μM) were added to cells plated at a density of 200,000 cells/ml. The inhibitors were added either once on Day 0 as a bolus (closed circle and square) or daily (open circle or triangle). The number of viable cells was determined daily. […] Nalm-6 and Nall-1 are leukemic cell lines generally representative of CALLA+ lymphoblastic leukemias. […] The number of viable cells was determined daily. In FIG. 2, the NEP inhibitors phosphoramidon (PA;10 nM) and carboxyphenylethyl-Phe-β-Ala (10 μM) were added to Nall-1 and, in a separate experiment, to SMS-SB cells plated at a density of 200,000 cells/ml. The inhibitors were added either once on Day 0 as a bolus (closed circle and square) or daily (open circle or triangle). The number of viable cells was determined daily.

L3 myoblast cell line = experiment: L3 myoblast cell line, formation of myotubules; assay type: cell-based

Row | Compound | irreversible inhibition / affinity labelling of NEP [2] | growth of Nalm-6 cells ([3]; 10 μM) | growth of CALLA- SMS leukemic cell line [4] | growth of Nalm-6 cells in conditioned media [3] | cell growth of Nalm-6 [3] | enzyme (NEP) activity in conditioned vs fresh media [5] | cell growth of Nall-1 [6] | further results
1 | CC(C)C[C@@H](NC(=O)CBr)C(=O)NCC(=O)O [BADLG, N-bromoacetyl-D-Leu-Gly] (BrAc-[dL]-Gly-OH) | irreversible inhibitor |  |  |  |  |  |  | Ki [1]: 5 mM; mol incorporated per mol of enzyme ([2]; irreversible inhibition): 1 mol per mol of enzyme
2 | C[C@H](CS)C(=O)N1CCC[C@H]1C(=O)O [captopril, HS--CH2 --CH(CH3)--CO--Pro] |  | without effect | neither thiorphan nor captopril affect the growth |  |  |  |  | 
3 | O=C(O)CCNC(=O)[C@H](Cc1ccccc1)NC(Cc1ccccc1)C(=O)O (stereo partly drawn) [carboxyphenylethyl-Phe-β-Ala] |  |  |  | the cells grow | cell growth was inhibited; also recorded: inhibit cell growth | just as effectively inhibited in the conditioned media as in the fresh media | cell growth was inhibited; also recorded: inhibit cell growth | 
4 | O=C(O)CNC(=O)C(CS)Cc1ccccc1 (stereo not shown) [thiorphan, HS--CH2 --CH(CH2 --.phi.)--CO--Gly] |  | inhibits the growth | neither thiorphan nor captopril affect the growth |  |  |  |  | 
5 | CC(C)C[C@H](NP(=O)(O)O[C@@H]1O[C@@H](C)[C@H](O)[C@@H](O)[C@H]1O)C(=O)N[C@@H](Cc1c[nH]c2ccccc12)C(=O)O [phosphoramidon] |  |  |  | the cells grow | cell growth was inhibited; also recorded: inhibit cell growth | just as effectively inhibited in the conditioned media as in the fresh media | cell growth was inhibited; also recorded: inhibit cell growth | duration of inhibition of cell growth at higher inhibitor concentration ([3]; 10 μM): growth is inhibited during the entire course of the experiment; growth of Nalm-6 cells in dialyzed conditioned media ([3]; conditioned media dialyzed against fresh media, cut-off 14,000): cell growth was once again inhibited; effect on L3 myoblast cell line (formation of myotubules) (L3 myoblast cell line): unaffected
6 | C[C@H](NC(=O)[C@@H](Cc1ccccc1)NC(=O)CBr)C(=O)O [bromoacetyl-D-Phe-Ala] | not an affinity label of NEP |  |  |  |  |  |  | 
